Data reported in PMC8202330, “Phosphorylation of the LIR Domain of SCOC Modulates ATG8 Binding Affinity and Specificity” (Journal of Molecular Biology, 2021).
Read-outs that look alike come from different tables or passages of the source.

Key:
Assay type in all cases: binding
GABARAP = biological target: T1, GABARAP (Homo sapiens, UniProt O95166); assay: Bio-layer interferometry (BLI) affinity of SCOC LIR peptides for GABARAP; conditions: BLI, Tris pH 7.5, 25 °C, average ± standard error of fit
T1 construct: fused with a Gly-Ser linker to full-length GABARAP (GST-GABARAP (pAL)); GST (followed by 3C protease cleavage site) (N); made in house
Protocol: (§1) Bio-layer interferometry (BLI) is an optical analytical technique for measuring kinetics of interactions in real-time. The biosensor tip surface immobilized with a ligand is incubated with an analyte in solution, resulting in an increase in optical thickness at the biosensor tip and a wavelength shift, which is a direct measure of the change in thickness. Bio-layer interferometry analyses of ATG8s binding to immobilized biotinylated LIR peptides were performed using an Octet Red 96 (ForteBio). […] Ligands-loaded SA biosensors were then incubated with different concentrations of ATG8. All binding experiments were performed in solid-black 96-well plates containing 200 μl of solution (25 mM Tris pH 7.5, 150 mM NaCl, 0.5 mM TCEP, 0.1% Tween20, 1 mg/ml BSA) in each well at 25 °C with an agitation speed of 1000 rpm. Each measurement was repeated 2 to 3 times. Dissociation constants for LIR-ATG8 interactions were determined from plotting the increase in BLI response as a function of the protein concentration and fitting using non-linear regression of ForteBio 7.1 data analysis and GraphPad Prism 7 softwares.
(§2) The following peptides were synthesized using FMOC solid phase peptide chemistry by the Francis CRICK Institute peptide chemistry science technology platform: […]

LC3A = biological target: T2, LC3A (Homo sapiens, UniProt Q9H492); assay: Bio-layer interferometry (BLI) affinity of SCOC LIR peptides for LC3A; conditions: BLI, Tris pH 7.5, 25 °C, average ± standard error of fit, read-out: Kd LC3A
T2 construct: GST (followed by 3C protease cleavage site) (N); made in house
Protocol: as §1, §2

LC3C = biological target: T3, LC3C (Homo sapiens, UniProt Q9BXW4); assay: Bio-layer interferometry (BLI) affinity of SCOC LIR peptides for LC3C; conditions: BLI, Tris pH 7.5, 25 °C, average ± standard error of fit, read-out: Kd LC3C
T3 construct: GST (followed by 3C protease cleavage site) (N); made in house
Protocol: as §1, §2

GABARAPL1 = biological target: T4, GABARAPL1 (Homo sapiens, UniProt Q9H0R8); assay: Bio-layer interferometry (BLI) affinity of SCOC LIR peptides for GABARAPL1; conditions: BLI, Tris pH 7.5, 25 °C, average ± standard error of fit, read-out: Kd GAB-L1
T4 construct: GST-GABARAPL1 full-length (pAL); GST (followed by 3C protease cleavage site) (N); made in house
Protocol: as §1, §2

LC3B = biological target: T5, LC3B (Homo sapiens, UniProt Q9GZQ8); assay: Bio-layer interferometry (BLI) affinity of SCOC LIR peptides for LC3B; conditions: BLI, wild-type and phosphorylated SCOC LIR peptides; Tris pH 7.5, 25 °C; average ± standard error of fit, n = 2–3; Figure 4B; read-out: Kd LC3B
T5 construct: GST (followed by 3C protease cleavage site) (N); made in house
Protocol: as §1, §2

GABARAPL2 = biological target: T6, GABARAPL2 (Homo sapiens, UniProt P60520); assay: Bio-layer interferometry (BLI) affinity of SCOC LIR peptides for GABARAPL2; conditions: BLI, wild-type and phosphorylated SCOC LIR peptides; Tris pH 7.5, 25 °C; average ± standard error of fit, n = 2–3; Figure 4B; read-out: Kd GAB-L2
T6 construct: GST (followed by 3C protease cleavage site) (N); made in house
Protocol: as §1, §2

[1] = wild-type, truncated and phosphorylated SCOC LIR peptides, n = 2, Figure 6A
[2] = wild-type, truncated and phosphorylated SCOC LIR peptides, n = 2, Figure 6A, read-out: Kd GAB
[3] = wild-type and phosphorylated SCOC LIR peptides, n = 2–3, Figure 4B

T4 sequence (Q9H0R8 whole entry): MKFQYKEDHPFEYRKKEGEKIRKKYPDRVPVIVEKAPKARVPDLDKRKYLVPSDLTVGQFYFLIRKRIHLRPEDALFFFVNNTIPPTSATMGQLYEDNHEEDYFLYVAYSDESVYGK
T3 sequence (Q9BXW4 whole entry): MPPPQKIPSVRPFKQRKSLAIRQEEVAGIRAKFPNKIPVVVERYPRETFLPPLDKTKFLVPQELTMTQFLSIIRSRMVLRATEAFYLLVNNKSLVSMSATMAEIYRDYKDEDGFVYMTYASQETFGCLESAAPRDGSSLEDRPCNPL
T1 sequence (O95166 whole entry, the tested form may be a part): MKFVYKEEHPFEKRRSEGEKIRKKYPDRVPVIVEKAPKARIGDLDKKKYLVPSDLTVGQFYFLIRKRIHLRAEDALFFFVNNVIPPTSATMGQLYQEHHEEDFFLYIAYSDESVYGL
T6 sequence (P60520 whole entry): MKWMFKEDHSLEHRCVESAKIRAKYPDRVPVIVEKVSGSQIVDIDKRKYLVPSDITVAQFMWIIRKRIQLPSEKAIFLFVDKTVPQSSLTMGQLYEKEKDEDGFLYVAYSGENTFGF

With `CC[C@H](C)[C@H](NC(=O)[C@H](CC(=O)O)NC(=O)[C@H](CC(=O)O)NC(=O)[C@H](C)NC(=O)[C@H](CC(C)C)NC(=O)[C@H](CO)NC(=O)[C@@H](NC(=O)[C@H](CC(N)=O)NC(=O)[C@@H](NC(=O)[C@H](Cc1ccccc1)NC(=O)[C@@H](NC(=O)[C@H](CO)NC(=O)[C@H](CC(=O)O)NC(=O)[C@H](CCC(=O)O)NC(=O)[C@H](CCC(=O)O)NC(=O)[C@H](CCC(=O)O)NC(=O)[C@H](CCC(=O)O)NC(=O)[C@@H](N)CCCCN)[C@@H](C)O)[C@@H](C)O)[C@@H](C)CC)C(=O)N[C@@H](CC(=O)O)C(=O)N[C@@H](Cc1c[nH]cn1)C(N)=O` [SCOC WT] the Kd (GABARAP; biotinylated LIR peptide on streptavidin biosensor, n = 2, Figure 1E, Suppl. Figure 2A, read-out: Kd GABARAP) was 3.6 µM.
With `CC[C@H](C)[C@H](NC(=O)[C@H](CC(N)=O)NC(=O)[C@@H](NC(=O)[C@H](Cc1ccccc1)NC(=O)[C@@H](NC(=O)[C@H](CO)NC(=O)[C@H](CC(=O)O)NC(=O)[C@H](CCC(=O)O)NC(=O)[C@H](CCC(=O)O)NC(=O)[C@H](CCC(=O)O)NC(=O)[C@H](CCC(=O)O)NC(=O)[C@@H](N)CCCCN)[C@@H](C)O)[C@@H](C)O)C(=O)N[C@@H](COP(=O)(O)O)C(=O)N[C@@H](CC(C)C)C(=O)N[C@@H](C)C(N)=O` [SCOC aa 6-20/pS18] the Kd (LC3A; [1]) was 33.3 ± 4.8 µM, the Kd (LC3C; [1]) was 5 ± 0.5 µM and the Kd (GABARAP; [2]) was 7.5 ± 0.8 µM. For the same compound, the Kd (GABARAPL1; [1]) was 3.8 ± 0.3 µM.
Compound `CC[C@H](C)[C@H](NC(=O)[C@H](CC(N)=O)NC(=O)[C@@H](NC(=O)[C@H](Cc1ccccc1)NC(=O)[C@@H](NC(=O)[C@H](CO)NC(=O)[C@H](CC(=O)O)NC(=O)[C@H](CCC(=O)O)NC(=O)[C@H](CCC(=O)O)NC(=O)[C@H](CCC(=O)O)NC(=O)[C@H](CCC(=O)O)NC(=O)[C@@H](N)CCCCN)[C@@H](C)O)[C@@H](C)O)C(=O)N[C@@H](CO)C(=O)N[C@@H](CC(C)C)C(=O)N[C@@H](C)C(N)=O` [SCOC aa 6-20] has a Kd (LC3A; [1]) of 209 ± 25 µM, a Kd (LC3C; [1]) of 21.3 ± 2.4 µM and a Kd (GABARAP; [2]) of 8.5 ± 0.7 µM. It also gave a Kd (GABARAPL1; [1]) of 6.8 ± 0.6 µM.
`CC[C@H](C)[C@H](NC(=O)[C@H](CC(=O)O)NC(=O)[C@H](CC(=O)O)NC(=O)[C@H](C)NC(=O)[C@H](CC(C)C)NC(=O)[C@H](COP(=O)(O)O)NC(=O)[C@@H](NC(=O)[C@H](CC(N)=O)NC(=O)[C@@H](NC(=O)[C@H](Cc1ccccc1)NC(=O)[C@@H](NC(=O)[C@H](COP(=O)(O)O)NC(=O)[C@H](CC(=O)O)NC(=O)[C@H](CCC(=O)O)NC(=O)[C@H](CCC(=O)O)NC(=O)[C@H](CCC(=O)O)NC(=O)[C@H](CCC(=O)O)NC(=O)[C@@H](N)CCCCN)[C@@H](C)O)[C@@H](C)O)[C@@H](C)CC)C(=O)N[C@@H](CC(=O)O)C(=O)N[C@@H](Cc1c[nH]cn1)C(N)=O` [pS12, pS18] showed a Kd (LC3A; [3]) of 1.6 ± 0.2 µM, a Kd (LC3B) of 7.8 ± 0.9 µM and a Kd (LC3C; [3]) of 0.4 ± 0.04 µM. It also gave a Kd (GABARAP; wild-type and phosphorylated SCOC LIR peptides, n = 2–3, Figure 4B, read-out: Kd GAB) of 1 ± 0.1 µM, a Kd (GABARAPL1; [3]) of 0.4 ± 0.03 µM and a Kd (GABARAPL2) of 10.4 ± 0.5 µM.
